# Measured values as given in patent US7871978B2, “Bone tropic peptides” (University of Virginia Patent Foundation, priority 2004, dated 2011).
# Entries after “also recorded” stand apart in the source; their conditions may differ.
# Key:
# [1] = tested on: Unicortical femoral defects; assay: Peptide-mediated osteogenesis in cortical bone defects (Example 8); assay type: in vivo, Fisher 344 rats; conditions: for Histological appearance of repair tissue in the defect / Effectiveness at stimulating osteogenesis and cortical bone repair: 100 mM peptide in gelfoam, two weeks postoperatively; for Effectiveness at stimulating osteogenesis and cortical bone repair: versus gelfoam+PBS
# How it was run: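 Peptides (100 mM in a 1.5 × 2 mm gelfoam carrier) were placed in 1.5 mm unicortical femoral defects in Fisher 344 rats, with the contralateral defect given gelfoam+PBS as control, and harvested at two weeks. L7 was also dosed at 1, 5 and 20 mM, and 20 mM L7 was followed over 5, 10, 15 and 20 days.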
# [2] = tested on: bovine aortic endothelial cells; assay: Effect of peptides on adherent bovine aortic endothelial cells on fibronectin or collagen; assay type: cell-based; conditions: 0.1M biotinylated peptide, 1 hour; cells adhered four hours on fibronectin or collagen
# Method: Peptides from the phage display project were added to bovine aortic endothelial cells in culture. The endothelial cells had adhered to a surface coated with collagen or with fibronectin.
# Experiment 1: Bovine aortic endothelial cells were plated on glass slides that were coated either fibronectin or collagen. The cell density was 5,000 cells/well. After the cells adhered for four hours, 0.1M of biotinylated peptide was added to each well. The following peptides were used: L1, L2, L5, L6, L7, L12, L13, L14, L19, R1, R3, and R8.
# To perform this experiment, the media was removed and the cells were rinsed with 1×PBS plus 1% BSA three times. Peptides were diluted in 1×PBS plus 1% BSA, added to cells and incubated for 1 hour. The cells were rinsed three times with 1% BSA in PBS, and fixed with 2% parafomaldehyde. Aldehyde groups were blocked with 0.2 M HCl-glycine in PBS, the cells were rinsed three times with 1% BSA in PBS and ExtrAvidin-FITC (1:200 dilution) was added and incubated overnight at 4° C. The cells were rinsed three times with 1% BSA in PBS. The chambers and the gasket were removed from each slide, Vectashield was added, covered and viewed on a Nikon microscope. Images were acquired using a Coolsnap digital camera and Metavue software. […]
# Experiment 3: The cells were adherent for about 6 hours and peptides at various concentrations were added to the cells. The concentrations of each of the peptides used in this experiment were: 0.1M, 0.01M, 0.001M and 0.0001M biotinylated peptide. The following peptides were tested: L1, L5, L6, L7, L13, L14, R1, R3, R8, DIP1 and PBS control (SEQ ID NOs:1, 3, 4, 5, 8, 9, 11, 13, 14, and 29).
# [3] = tested on: bone and marrow tissue sections (mouse femur, rib); assay: Biotinylated peptide binding to bone/marrow tissue sections, Avidin-FITC fluorescence; set-up: key to Localization of peptide binding: Bone/Marrow (tissue sections): ✓: Check marks indicate positive binding observed with FITC; −: a dash indicates a negative result; conditions: for Localization of peptide binding: Bone/Marrow (tissue sections): FITC; for Binding to rib and long bone growth plate sections: biotinylated peptides, 1/50,000 dilution of Avidin-FITC
# How it was run: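 Cryosections (10 μm) of EDTA-decalcified femurs from 4-week-old mice were avidin/biotin-blocked, incubated 1 h at room temperature with 10 mM biotinylated peptide (PBS as negative control), then overnight at 4 °C with Avidin-FITC (1:50,000). Binding was visualized by fluorescence microscopy with a 535 nm fluorescein filter.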
# [4] = tested on: bovine aortic endothelial cells (BAEC); assay: Peptide binding to BAEC in culture (Avidin-FITC); set-up: key: ✓: Check marks indicate positive binding observed with FITC; −: a dash indicates a negative result
# Method: For localization of peptide binding to cells and tissue sections, biotinylated peptides were synthesized. Fluorescein-isothiocyanate (FITC) labeled Avidin was used to localize the peptides on cells in culture and in tissue sections in vitro by epiluminescence microscopy. In addition, the biotinylated peptides were detected at concentrations as low as 1 μM in slot blots.
# Bone marrow cells isolated from mouse femur were lifted with ethylenediaminetetraacetic acid (EDTA) and trypsin, resuspended, and allowed to attach on fibronectin-coated chamber slides for Avidin-FITC staining. […] The D1 cell is a multipotential mesenchymal stem-like line that was isolated from bone marrow and shown to have the characteristics of osteoprogenitor cells. This cell line has been well established and used successfully in several in vitro and in vivo studies in our laboratory. Peptide binding to human bone marrow endothelial cells (HBME) and bovine aortic endothelial cells (BAEC) in culture was also tested using the same procedure.
# bone and bone marrow = assay: In vivo biopanning with 12-mer peptide phage display library; set-up: species or system BALB/c mice; conditions: for PERCENT FREQUENCY: phage eluted from bone and bone marrow; for PHAGE SEQUENCE FREQUENCY (number of times the sequence was found in a group of plaques): phage eluted from bone and bone marrow after repeated rounds
# How it was run: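 BALB/c mice (8 weeks) received 3.4×10^10 pfu of a 12-mer peptide phage library (pIII fusion, GGGS spacer) by intracardiac injection and were euthanized after 5 min. Bound phage eluted from bone and bone marrow was titered, amplified and re-injected at the same dose. Peptide frequency was compared with liver, kidney, lung, spleen and brain; sequences identified by phage DNA sequencing.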
# [5] = BALB/c mouse decalcified femur cryosections, biotinylated peptide and Avidin-FITC
# [6] = BALB/c mouse femur cryosections, biotinylated peptide
# [7] = Swiss Webster mouse decalcified femur cryosections, 10 mM biotinylated peptide, 1 hour, Avidin-FITC
# [8] = Swiss Webster mouse femur cryosections, 10 mM biotinylated peptide
# [9] = biotinylated peptide, Avidin-FITC
Substance,"New bone formation versus corresponding controls at every time point ([1]; 20 mM, 5, 10, 15, and 20 days)","Time course of cortical bone repair ([1]; 20 mM, 5, 10, 15, and 20 days)",Histological appearance of repair tissue in the defect [1],Effectiveness at stimulating osteogenesis and cortical bone repair [1],"Amount of bone that regenerated versus controls without peptide ([1]; 1, 5, and 20 mM)","Effect of peptide concentration on cortical bone regeneration ([1]; 1, 5, and 20 mM)",Effect on adherent BAEC (Experiment 1) [2],"Fluorescence detected in femur sections incubated with peptide [3, 5]","Cell shape preferentially recognized by peptide [3, 6]","Extent of marrow cells detected by fluorescence [3, 6]",Localization of peptide binding: Bone/Marrow (tissue sections) [3],"Fluorescence detected in femur sections incubated with peptide [3, 7]","Cell shape preferentially recognized by peptide [3, 8]","Extent of marrow cells detected by fluorescence [3, 8]",Localization of peptide binding: BAEC [4],PERCENT FREQUENCY (bone and bone marrow) [%],PHAGE SEQUENCE FREQUENCY (number of times the sequence was found in a group of plaques) (bone and bone marrow),Binding to rib and long bone growth plate sections [3],"Binding to bone and marrow in cryosections of mouse femur [3, 9]","Binding to fresh frozen sections of mouse rib [3, 9]"
ASN-SER-MET-ILE-ALA-HIS-ASN-LYS-THR-ARG-MET-HIS-GLY-GLY-GLY-SER (NSMIAHNKTRMHGGGS; listed as Homo sapiens) [Peptide L7],new bone formation was greater in the defects treated with peptide compared with the corresponding controls,Cortical bone regeneration increased with time,considerable amounts of cortical bone in the defects,potentiate bone regeneration in vivo; also recorded: most effective at stimulating osteogenesis and cortical bone repair; also recorded: most effective peptides for osteogenesis and repair of cortical defects,"increased with all the concentrations of peptide, even at 1 mM and 5 mM compared with the controls without peptide",Osteogenesis was most pronounced with the highest concentration of peptide,the cells lifted and formed clusters that stained intensely,Fluorescence was detected,Cells that appeared morphologically elongated showed the highest fluorescence intensity,most of the cells were detectable but fluorescence intensity was variable,✓,Fluorescence was detected,Cells that appeared morphologically elongated showed the highest fluorescence intensity,most of the cells were detectable but fluorescence intensity was variable,✓,3.6,1/28,,,
ASN-TYR-SER-HIS-LEU-ARG-VAL-LYS-LEU-PRO-THR-PRO-GLY-GLY-GLY-SER (NYSHLRVKLPTPGGGS; listed as Homo sapiens) [Peptide R1],,,considerable amounts of cortical bone in the defects,potentiate bone regeneration in vivo; also recorded: most effective at stimulating osteogenesis and cortical bone repair; also recorded: most effective peptides for osteogenesis and repair of cortical defects,,,"the cells had lifted completely and most of the cells disappeared from the surface of the slides, leaving a lot of cell debris",Fluorescence was detected,recognized the round cells preferentially,did not detect as many cells,✓,Fluorescence was detected,recognized the round cells preferentially,did not detect as many cells,✓,24.1,7/29,significant binding to rib and long bone growth plate,,
SER-GLY-HIS-GLN-LEU-LEU-LEU-ASN-LYS-MET-PRO-ASN-GLY-GLY-GLY-SER (SGHQLLLNKMPNGGGS; listed as Homo sapiens) [Peptide L13],,,"a considerable amount of gelfoam remaining in the defects, with thinner and more loosely organized cortical bone",least effective for cortical bone repair,,,"no effect, with results similar to PBS",,,,✓,,,,−,23.3,7/30,significant binding to rib and long bone growth plate,binds to areas of bone and marrow in cryosections of mouse femur,binds to fresh frozen sections of mouse rib containing bone and marrow cells
